Experimental data: PMC12394179, “Re‐engineering a transferase scaffold for indole C3 methylation in diketopiperazines” (Protein Science : A Publication of the Protein Society, 2025)

Biological target: T1, SeMT (Saccharopolyspora erythraea, UniProt A4FFC0)
T1 construct: gene SACE_3471; codon-harmonized synthetic gene in pET28a(+), E. coli BL21(DE3), Ni-NTA purified; dimer
T1 sequence (A4FFC0 1-266): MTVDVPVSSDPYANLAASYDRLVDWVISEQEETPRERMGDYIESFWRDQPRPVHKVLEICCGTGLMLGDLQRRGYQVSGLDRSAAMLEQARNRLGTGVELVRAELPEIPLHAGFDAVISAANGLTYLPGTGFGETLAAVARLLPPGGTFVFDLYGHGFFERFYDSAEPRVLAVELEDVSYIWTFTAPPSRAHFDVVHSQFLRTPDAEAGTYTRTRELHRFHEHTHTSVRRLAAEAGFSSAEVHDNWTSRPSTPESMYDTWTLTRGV
Experiment: X-ray crystallography
Type: binding
Conditions: co-crystal with 2 mM SAH, pH 5.6 reservoir; cofactor site (product of methyl transfer)

Q: Nc1ncnc2c1ncn2[C@@H]1O[C@H](CSCC[C@H](N)C(=O)O)[C@@H](O)[C@H]1O [SAH] was tested. Which X-ray crystallography did it give?
A: the demethylated cofactor SAH (included in the sample for crystallization) is found embraced
